{"source": "patent US12544348B2", "about": "“Methods for treating APOE4/4-associated disorders” (The Regents of the University of California, priority 2018, dated 2026)", "tested_on": "hippocampal cells of apoE4-KI mice", "experiment": "Single-nucleus RNA-seq of hippocampus of apoE4-KI mice", "format": "in vivo", "method": "Single-Nucleus RNA-Seq Library Preparation and Sequencing. Twelve-month-old apoE3-KI and apoE4-KI mice received daily i.p. injections of vehicle or bumetanide (0.2 mg/kg body weight) for 60 days. […] Mouse hippocampi were acutely dissected on ice. Dissected hippocampi were placed in 2 mL Hibernate A®/B27®/GlutaMAX™ (HEB) medium in a 5 mL tube. The HEB medium was removed to a 15 mL conical and kept on ice. 2 mL of chilled lysis buffer (10 mM Tris-HCl, 10 mM NaCl, 3 mM MgCl2, and 0.1% Nonidet™ P40 Substitute in Nuclease-Free Water) were added to the tissue, and the hippocampi were homogenized by suctioning 10× through a 21G needle. After homogenization, the tissue was lysed on ice for 15 min, swirling 2-3×during this incubation period. The reserved chilled HEB media was then returned to the lysed tissue solution, and the tissue was further triturated with 5-7 passes through a 1 mL pipette. A 30 μm cell strainer (MACS SmartStrainer; Miltenyi Biotech 130-110-915) was washed with 1 mL of PBS, and the lysed tissue solution was filtered through the strainer to remove debris and clumps. Filtered nuclei were centrifuged at 500 ref for 5 min at 4° C. […]\nSingle-Nucleus RNA-Seq Alignment, Clustering and Cell Type Identification. […] Reads from each sample were aligned to this genome and aggregated using the 10×Cellranger pipeline with no modifications. […] Genes with detected expression in at least 3 nuclei, and nuclei with at least 200 detected genes and a maximum of 2400 were retained for analysis for a total of Nuclei with a mitochondrial percentage of less than 0.0025 were retained for future analysis for a total of 27,415 cells. Highly variable genes were calculated via the FindVariableGenes function with the parameters: x.low.cutoff=0.0123, x.high.cutoff =3, y.cutoff=0.5 for a total of 2578 highly variable genes. […] PCAElbow Plot was used to plot the cumulative standard deviations of each principal component the significance of the association of each gene with each principal component was assessed via the JackStraw and JackStrawPlot function. […]", "data": [{"compound": "CCCCNc1cc(C(=O)O)cc(S(N)(=O)=O)c1Oc1ccccc1", "note": "[bumetanide, 3-(butylamino)-4-phenoxy-5-sulfamoylbenzoic acid]", "values": [{"measurement": "number of those pathways also enriched in apoE4/4-mediated AD in humans", "setting": "0.2 mg/kg daily i.p. 8 weeks", "result": 19}, {"measurement": "number of cell types (of 18 clusters) in which apoE4/4 AD signature genes were flipped", "setting": "0.2 mg/kg daily i.p. 8 weeks, P<0.05 Monte Carlo", "result": 12}, {"measurement": "number of ontological pathways enriched in at least one neuronal cell type with significant flip", "setting": "p<0.005, 0.2 mg/kg daily i.p. 8 weeks", "result": 104}]}]}
